Reference: ChEMBL document CHEMBL1146427, “Identification of the novel antimicrobial fatty acid (5Z,9Z)-14-methyl-5,9-pentadecadienoic acid in Eunicea succinea” (J Nat Prod, 1997)
≈ marks a conversion by molar mass, not a printed value.

Experiments:
[1] = tested on: Enterococcus faecalis; assay: Antibacterial activity against Streptococcus faecalis group D ATCC 29212 after overnight incubation; format: functional, organism-based
[2] = tested on: Escherichia coli; assay: Antibacterial activity against Escherichia coli ATCC 25922 after overnight incubation; format: functional
[3] = tested on: Pseudomonas aeruginosa; assay: Antibacterial activity against Pseudomonas aeruginosa ATCC 27853 after overnight incubation; format: functional
[4] = tested on: Staphylococcus aureus; assay: Antibacterial activity against Staphylococcus aureus ATCC 25923 after overnight incubation; format: functional, organism-based

IC50 [1]: < 10 µg/mL
MIC [1]: 160 µM (≈ 40.4 µg/mL)
MIC [2]: > 100 µg/mL
MIC [3]: > 100 µg/mL
IC50 [4]: 36 µg/mL (≈ 143 µM)
MIC [4]: 240 µM (≈ 60.6 µg/mL)
SMILES: CC(C)CCC/C=C\CC/C=C\CCCC(=O)O
